tested on: AP-1; assay: Effect of the zinc salt of acylamino acid on AP-1 activation by ultraviolet light (gel shift assay); format: cell-based; conditions: human dermal fibroblasts; 50 μM test compound added 18 hours before UVA 20 J/cm2; nuclear protein collected after 4 to 5 hours
Protocol: After 18 hours, the culture medium was replaced with a phenol red-free medium. By using […]-80 (manufactured by Toshiba Medical Supply Co., Ltd.), the fibroblasts were irradiated with ultraviolet light (UVA: 20 J/cm2). After 4 to 5 hours, the cells were collected, and a nuclear protein was extracted by a standard method. With regard to the obtained nuclear protein, activated AP-1 was detected by a gel shift assay. By measuring the radioactivity value of the AP-1 band using a bioimaging analyzer, BAS2000 (manufactured by Fuji Film Co., Ltd.), the amount of AP-1 was quantified. The inhibition ratio of activation of AP-1 of the test compound was calculated by the following formula. […] A1: radioactivity value of AP-1 band with addition of test compound […] A3: radioactivity value of AP-1 band without addition of test compound and without ultraviolet irradiation

| SMILES | Inhibition ratio of activation of AP-1 [%] |
| --- | --- |
| CCCCCCCCCCCC(=O)N[C@@H](CCC(=O)[O-])C(=O)[O-].[Zn+2] [Zinc salt of N-lauroyl-L-glutamic acid] | 89.6 |
| CCCCCCCCCCCC(=O)N[C@@H](Cc1c[nH]cn1)C(=O)[O-].CCCCCCCCCCCC(=O)N[C@@H](Cc1c[nH]cn1)C(=O)[O-].[Zn+2] [Zinc salt of N-lauroyl-L-histidine] | 54.8 |
| CCCCCCCCCCCC(=O)[O-].CCCCCCCCCCCC(=O)[O-].[Zn+2] [Zinc salt of lauric acid] | 9.1 |
| NCC(=O)[O-].NCC(=O)[O-].[Zn+2] [Zinc salt of glycine] | −72.8 |
| N[C@@H](CCC(=O)[O-])C(=O)[O-].[Zn+2] [Zinc salt of L-glutamic acid] | 2.4 |
| CCCCCCCCCCCC(=O)NCC(=O)[O-].CCCCCCCCCCCC(=O)NCC(=O)[O-].[Zn+2] [Zinc salt of N-lauroyl glycine] | 59.2 |

Reference: US20070099888A1, “Inflammation Inhibitor Comprising Zinc Salt of Acylamino Acid” (priority 2004, published 2007)
